# Measurements reported in the supplement of paper PMC10307832.
# How the values were obtained:
# Test in all cases: relative viability (nuclei count vs DMSO), 5 days (fraction); higher = more cells survive
# 201T = test system: 201T
# Method in brief: (§1)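 One day after seeding in 1536-well plates, lung cancer cell lines were dosed by pin tool. Dosing was either single-drug or a fixed anchor-drug dose plus five library-drug doses (not always all listed) in √10 steps. After 5 days, nuclei were stained in one fix-and-stain step and counted on 4× images, and relative viability is the nuclei count of treated wells over that of vehicle wells, given as the median of duplicate plates.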
# ABC-1 = test system: ABC-1
# Method in brief: as §1
# BEN = test system: BEN
# Method in brief: as §1
# CAL-12T = test system: CAL-12T
# Method in brief: as §1
# COR-L 105 = test system: COR-L 105
# Method in brief: as §1
# EKVX = test system: EKVX
# Method in brief: as §1
# HARA = test system: HARA
# Method in brief: as §1
# HCC-366 = test system: HCC-366
# Method in brief: as §1
# LOU-NH91 = test system: LOU-NH91
# Method in brief: as §1
# NCI-H1437 = test system: NCI-H1437
# Method in brief: as §1
# NCI-H1650 = test system: NCI-H1650
# Method in brief: as §1
# NCI-H1666 = test system: NCI-H1666
# Method in brief: as §1
# NCI-H2009 = test system: NCI-H2009
# Method in brief: as §1
# NCI-H3122 = test system: NCI-H3122
# Method in brief: as §1
# NCI-H441 = test system: NCI-H441
# Method in brief: as §1
# NCI-H460 = test system: NCI-H460
# Method in brief: as §1
# NCI-H661 = test system: NCI-H661
# Method in brief: as §1
# NCI-H727 = test system: NCI-H727
# Method in brief: as §1
# PC-14 = test system: PC-14
# Method in brief: as §1
smiles,measurement,setting,value
COc1nc(C)cnc1NS(=O)(=O)c1cccnc1-c1ccc(-c2nnco2)cc1 [Zibotentan] + CC(C)C[C@H](NC(=O)[C@H](Cc1ccccc1)NC(=O)c1cnccn1)B(O)O [Bortezomib] (partner 0.002 µM),relative viability,201T; first compound 0.08 µM,1.1
same,relative viability,201T; first compound 0.253 µM,1.05
same,relative viability,201T; first compound 0.8 µM,1.11
same,relative viability,201T; first compound 2.53 µM,1.11
same,relative viability,ABC-1; first compound 0.08 µM,0.348
same,relative viability,ABC-1; first compound 0.253 µM,0.289
same,relative viability,ABC-1; first compound 0.8 µM,0.374
same,relative viability,ABC-1; first compound 2.53 µM,0.316
same,relative viability,BEN; first compound 0.08 µM,0.912
same,relative viability,BEN; first compound 0.253 µM,0.824
same,relative viability,BEN; first compound 0.8 µM,0.792
same,relative viability,BEN; first compound 2.53 µM,0.593
same,relative viability,CAL-12T; first compound 0.08 µM,0.941
same,relative viability,CAL-12T; first compound 0.8 µM,1.01
same,relative viability,CAL-12T; first compound 2.53 µM,1.01
same,relative viability,COR-L 105; first compound 0.08 µM,0.819
same,relative viability,COR-L 105; first compound 0.253 µM,0.694
same,relative viability,COR-L 105; first compound 0.8 µM,0.859
same,relative viability,COR-L 105; first compound 2.53 µM,0.994
same,relative viability,EKVX; first compound 0.08 µM,1.13
same,relative viability,EKVX; first compound 0.253 µM,1.17
same,relative viability,EKVX; first compound 0.8 µM,1.11
same,relative viability,EKVX; first compound 2.53 µM,1.07
same,relative viability,HARA; first compound 0.08 µM,1.18
same,relative viability,HARA; first compound 0.253 µM,1.13
same,relative viability,HARA; first compound 0.8 µM,1.15
same,relative viability,HARA; first compound 2.53 µM,1.19
same,relative viability,HCC-366; first compound 0.08 µM,1.14
same,relative viability,HCC-366; first compound 0.253 µM,1.03
same,relative viability,HCC-366; first compound 0.8 µM,0.795
same,relative viability,HCC-366; first compound 2.53 µM,1.11
same,relative viability,LOU-NH91; first compound 0.08 µM,0.469
same,relative viability,LOU-NH91; first compound 0.253 µM,0.443
same,relative viability,LOU-NH91; first compound 0.8 µM,0.538
same,relative viability,LOU-NH91; first compound 2.53 µM,0.815
same,relative viability,NCI-H1437; first compound 0.08 µM,0.486
same,relative viability,NCI-H1437; first compound 0.253 µM,0.504
same,relative viability,NCI-H1437; first compound 0.8 µM,0.454
same,relative viability,NCI-H1437; first compound 2.53 µM,0.53
same,relative viability,NCI-H1650; first compound 0.08 µM,0.209
same,relative viability,NCI-H1650; first compound 0.8 µM,0.198
same,relative viability,NCI-H1650; first compound 2.53 µM,0.194
same,relative viability,NCI-H1666; first compound 0.08 µM,0.76
same,relative viability,NCI-H1666; first compound 0.253 µM,0.599
same,relative viability,NCI-H1666; first compound 0.8 µM,0.8
same,relative viability,NCI-H1666; first compound 2.53 µM,1
same,relative viability,NCI-H2009; first compound 0.08 µM,1.04
same,relative viability,NCI-H2009; first compound 0.253 µM,0.973
same,relative viability,NCI-H2009; first compound 0.8 µM,1.11
same,relative viability,NCI-H2009; first compound 2.53 µM,1.12
same,relative viability,NCI-H3122; first compound 0.08 µM,1.02
same,relative viability,NCI-H3122; first compound 0.253 µM,0.979
same,relative viability,NCI-H3122; first compound 0.8 µM,0.992
same,relative viability,NCI-H3122; first compound 2.53 µM,1.03
same,relative viability,NCI-H441; first compound 0.08 µM,0.846
same,relative viability,NCI-H441; first compound 0.8 µM,0.463
same,relative viability,NCI-H441; first compound 2.53 µM,0.539
same,relative viability,NCI-H460; first compound 0.08 µM,1.25
same,relative viability,NCI-H460; first compound 0.8 µM,1.11
same,relative viability,NCI-H460; first compound 2.53 µM,1.2
same,relative viability,NCI-H661; first compound 0.08 µM,1.02
same,relative viability,NCI-H661; first compound 0.253 µM,0.656
same,relative viability,NCI-H661; first compound 0.8 µM,0.89
same,relative viability,NCI-H661; first compound 2.53 µM,0.841
same,relative viability,NCI-H727; first compound 0.08 µM,0.745
same,relative viability,NCI-H727; first compound 0.253 µM,0.768
same,relative viability,NCI-H727; first compound 0.8 µM,0.966
same,relative viability,NCI-H727; first compound 2.53 µM,0.805
same,relative viability,PC-14; first compound 0.08 µM,0.872
same,relative viability,PC-14; first compound 0.253 µM,0.922
same,relative viability,PC-14; first compound 0.8 µM,0.897
same,relative viability,PC-14; first compound 2.53 µM,0.861
